Consider eight molecules from US20250235460A1, “COMBINATION THERAPY USING GLUCOSE-DEPENDENT INSULINOTROPIC POLYPEPTIDE RECEPTOR ANTAGONIST COMPOUNDS AND GLP-1 RECEPTOR AGONIST COMPOUNDS” (Pfizer Inc., priority 2024, published 2025).

In general, EC50 refers to the concentration at which the effect is half-maximal. Low readings indicate higher potency in that assay, high ones lower potency in that assay. By Emax is commonly meant the maximal effect, on the per cent scale that the assay sets.

The target of assay [1] is human GLP-1R (Homo sapiens, UniProt P43220, G168S). The experiment in a line: CHO GLP-1R Clone H6 cAMP HTRF agonist assay (Assay 1, high receptor density). It counts as cell-based. The conditions noted are these: for EC50: CHO GLP-1R clone H6, cAMP HTRF, geometric mean; for Emax: CHO GLP-1R clone H6, arithmetic mean, relative to saturating GLP-1 (1 μM), read-out: Assay 1 Emax (%). The procedure, abridged: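 From replicate determinations, mean EC50 (geometric) and mean Emax (arithmetic) were derived and expressed to two significant figures.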
Sequence of human GLP-1R (Homo sapiens, UniProt P43220, G168S) (P43220 24-463 G168S): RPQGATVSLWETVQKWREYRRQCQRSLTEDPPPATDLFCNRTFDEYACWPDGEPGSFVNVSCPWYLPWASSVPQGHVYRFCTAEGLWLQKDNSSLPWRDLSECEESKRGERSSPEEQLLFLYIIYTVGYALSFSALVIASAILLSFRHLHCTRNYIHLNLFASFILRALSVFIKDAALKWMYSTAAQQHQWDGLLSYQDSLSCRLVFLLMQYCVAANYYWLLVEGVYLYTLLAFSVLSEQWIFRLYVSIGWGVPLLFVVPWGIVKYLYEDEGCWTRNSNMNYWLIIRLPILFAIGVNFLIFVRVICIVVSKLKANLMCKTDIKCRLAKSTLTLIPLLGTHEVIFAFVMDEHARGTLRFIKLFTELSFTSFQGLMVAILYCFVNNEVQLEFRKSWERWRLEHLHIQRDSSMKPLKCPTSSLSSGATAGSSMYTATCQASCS

Assay [2] addresses human GLP-1R (Homo sapiens, UniProt P43220, L260F). As to the kind of experiment: CHO GLP-1R Clone C6 cAMP HTRF agonist assay (Assay 2, low receptor density). In kind it is cell-based. Particulars: for EC50: CHO GLP-1R clone C6, cAMP HTRF, geometric mean; for Emax: CHO GLP-1R clone C6, arithmetic mean, relative to saturating GLP-1 (1 μM). An excerpt: In Table 5 and Table 6, assay data are presented to two (2) significant figures as the geometric mean (EC50s) and arithmetic mean (Emax) based on the number of replicates listed (Number). A blank cell means there was no data for that Example or the Emax was not calculated.
(TR-FRET usually uses a lanthanide donor and a delayed reading to cut background.)

Sequence of human GLP-1R (Homo sapiens, UniProt P43220, L260F) (P43220 24-463 L260F): as the sequence (P43220 24-463 G168S) above, with S145G, L237F counted along it

Take `COCCn1c(CN2CCC(c3cccc(OCc4ccc(Cl)cc4F)n3)CC2)nc2ccc(C(=O)O)c(F)c21` [Compound 170B, 2-[(4-{6-[(4-chloro-2-fluorobenzyl)oxy]pyridin-2-yl}piperidin-1-yl)methyl]-7-fluoro-1-(2-methoxyethyl)-1H-benzimidazole-6-carboxylic acid]: on human GLP-1R [1], the EC50 amounted to 79 nM and the Emax came out at 81%. Also, on human GLP-1R [2], the response was half-maximal at 4000 nM (EC50) and the Emax stood at 75%.

With `Cn1c(CN2CCC(c3cccc(OCc4ccc(C(F)(F)F)cc4)n3)CC2)nc2ccc(C(=O)O)cc21` [Compound 232B, 1-methyl-2-{[4-(6-{[4-(trifluoromethyl)benzyl]oxy}pyridin-2-yl)piperidin-1-yl]methyl}-1H-benzimidazole-6-carboxylic acid], at human GLP-1R [1], the response was half-maximal at 8.6 nM (EC50) and the Emax came out at 64%. At human GLP-1R [2], this molecule yielded an EC50 of 140 nM and an Emax of 76%.

Regarding `N#Cc1ccc(COc2cccc(C3CCN(Cc4nc5ccc(C(=O)O)cc5n4Cc4cnco4)CC3)n2)c(F)c1` [Compound 141B, 2-[(4-{6-[(4-cyano-2-fluorobenzyl)oxy]pyridin-2-yl}piperidin-1-yl)methyl]-1-(1,3-oxazol-5-ylmethyl)-1H-benzimidazole-6-carboxylic acid], the results for the EC50 on human GLP-1R [1] and at human GLP-1R [2] were 6 nM and 150 nM, respectively. Besides, the Emax on human GLP-1R [1] worked out at 73%; at human GLP-1R [2], 84%.

Take `Cc1cc(C)n(CCn2c(CN3CCC(c4cccc(OCc5ccc(Cl)cc5F)n4)CC3)nc3ccc(C(=O)O)cc32)n1` [Compound 332B, 2-[(4-{6-[(4-chloro-2-fluorobenzyl)oxy]pyridin-2-yl}piperidin-1-yl)methyl]-1-[2-(3,5-dimethyl-1H-pyrazol-1-yl)ethyl]-1H-benzimidazole-6-carboxylic acid]: the EC50 on human GLP-1R [1] stood at 5.3 nM; at human GLP-1R [2], 21 nM. Further, the Emax at human GLP-1R [1] amounted to 76%; at human GLP-1R [2] it was 84%.

For `CN(C)CCn1c(CN2CCC(c3cccc(OCc4ccc(Cl)cc4F)n3)CC2)nc2ccc(C(=O)O)cc21` [Compound 238B, 2-[(4-{6-[(4-chloro-2-fluorobenzyl)oxy]pyridin-2-yl}piperidin-1-yl)methyl]-1-[2-(dimethylamino)ethyl]-1H-benzimidazole-6-carboxylic acid], the EC50 at human GLP-1R [1] worked out at 0.71 nM; on human GLP-1R [2] it was 11 nM. The values for the Emax at human GLP-1R [1] and on human GLP-1R [2] were 81% and 100%, respectively.

As for `CC(C)n1c(CN2CCC(c3cccc(OCc4ccc(Cl)cc4F)n3)CC2)nc2ccc(C(=O)O)cc21` [Compound 258B, 2-[(4-{6-[(4-chloro-2-fluorobenzyl)oxy]pyridin-2-yl}piperidin-1-yl)methyl]-1-(propan-2-yl)-1H-benzimidazole-6-carboxylic acid], the EC50 on human GLP-1R [1] turned out to be 0.9 nM; at human GLP-1R [2] it was 9.7 nM. Also, the Emax on human GLP-1R [1] stood at 94%; at human GLP-1R [2], 100%.

As for `COCCn1c(CN2CCC(c3cccc(OCc4ccc(Cl)cc4F)n3)CC2)nc2cnc(C(=O)O)cc21` [Compound 205B, 2-[(4-{6-[(4-chloro-2-fluorobenzyl)oxy]pyridin-2-yl}piperidin-1-yl)methyl]-1-(2-methoxyethyl)-1H-imidazo[4,5-c]pyridine-6-carboxylic acid], at human GLP-1R [1], the EC50 stood at 5.7 nM and the Emax came out at 67%. Moreover, on human GLP-1R [2], the EC50 is 100 nM and the Emax came out at 79%.

`C[C@H]1CN(c2cccc(OCc3ccc(C#N)cc3F)n2)CCN1Cc1nc2ccc(C(=O)O)cc2n1CC1CCCO1` (stereo partly drawn) [Compound 364B, 2-{[(2S)-4-{6-[(4-cyano-2-fluorobenzyl)oxy]pyridin-2-yl}-2-methylpiperazin-1-yl]methyl}-1-(tetrahydrofuran-2-ylmethyl)-1H-benzimidazole-6-carboxylic acid]: the results for the EC50 on human GLP-1R [1] and at human GLP-1R [2] were 1.4 nM and 20 nM, respectively.
